Assay: xn = mol fraction of the nth substance listed
Details: 101 kPa

COCCn1cc[n+](C)c1.N#C[S-] + O=C1CCCO1
Details	electrical conductivity [S/m]	viscosity [mPa·s]
288.15 K, x1 = 0.1027	1.29	3.05
288.15 K, x1 = 0.1999	1.4	4.19
288.15 K, x1 = 0.3001	1.28	5.5
288.15 K, x1 = 0.4001	1.08	7.8
288.15 K, x1 = 0.5006	0.874	13
288.15 K, x1 = 0.6015	0.686	21.8
288.15 K, x1 = 0.8038	0.399	51
288.15 K, x1 = 0.9012	0.301	68
293.15 K, x1 = 0.1027	1.41	2.73
293.15 K, x1 = 0.1999	1.55	3.64
293.15 K, x1 = 0.3001	1.44	4.79
293.15 K, x1 = 0.4001	1.24	6.7
293.15 K, x1 = 0.5006	1.02	10.8
293.15 K, x1 = 0.6015	0.819	17.3
293.15 K, x1 = 0.7036	0.645	26.8
293.15 K, x1 = 0.9012	0.395	53
293.15 K, x1 = 1	0.315	67
298.15 K, x1 = 0.1027	1.54	2.44
298.15 K, x1 = 0.1999	1.72	3.18
298.15 K, x1 = 0.4001	1.42	5.8
298.15 K, x1 = 0.5006	1.19	9
298.15 K, x1 = 0.6015	0.975	13.9
298.15 K, x1 = 0.7036	0.788	21.1
298.15 K, x1 = 0.8038	0.636	30.3
298.15 K, x1 = 0.9012	0.516	42
303.15 K, x1 = 0.1027	1.68	2.21
303.15 K, x1 = 0.1999	1.89	2.82
303.15 K, x1 = 0.4001	1.61	5.1
303.15 K, x1 = 0.5006	1.38	7.7
303.15 K, x1 = 0.6015	1.16	11.5
303.15 K, x1 = 0.7036	0.958	17.1
303.15 K, x1 = 0.8038	0.785	24.4
303.15 K, x1 = 0.9012	0.642	33.3
303.15 K, x1 = 1	0.52	42.1
308.15 K, x1 = 0.1027	1.82	2
308.15 K, x1 = 0.1999	2.08	2.51
308.15 K, x1 = 0.3001	2.02	3.27
308.15 K, x1 = 0.4001	1.82	4.49
308.15 K, x1 = 0.5006	1.59	6.5
308.15 K, x1 = 0.7036	1.14	14.1
308.15 K, x1 = 0.8038	0.951	19.9
308.15 K, x1 = 1	0.653	34.4
313.15 K, x1 = 0.1999	2.27	2.25
313.15 K, x1 = 0.3001	2.21	2.89
313.15 K, x1 = 0.4001	2.02	3.94
313.15 K, x1 = 0.6015	1.56	8.2
313.15 K, x1 = 0.8038	1.12	16.5
313.15 K, x1 = 0.9012	0.95	22.5
313.15 K, x1 = 1	0.795	28.6
318.15 K, x1 = 0.1027	2.16	1.66
318.15 K, x1 = 0.1999	2.47	2.03
318.15 K, x1 = 0.5006	2.03	4.92
318.15 K, x1 = 0.6015	1.78	7
318.15 K, x1 = 0.7036	1.54	10.2
318.15 K, x1 = 0.8038	1.32	14
318.15 K, x1 = 0.9012	1.13	18.9
318.15 K, x1 = 1	0.954	23.7
323.15 K, x1 = 0.1027	2.35	1.53
323.15 K, x1 = 0.3001	2.66	2.34
323.15 K, x1 = 0.6015	2	6.1
323.15 K, x1 = 0.8038	1.51	11.9
323.15 K, x1 = 0.9012	1.31	16
323.15 K, x1 = 1	1.12	20
328.15 K, x1 = 0.1027	2.55	1.41
328.15 K, x1 = 0.1999	2.92	1.69
328.15 K, x1 = 0.3001	2.9	2.1
328.15 K, x1 = 0.4001	2.74	2.79
328.15 K, x1 = 0.5006	2.5	3.75
328.15 K, x1 = 0.6015	2.25	5.4
328.15 K, x1 = 0.7036	1.99	7.6
328.15 K, x1 = 0.8038	1.74	10.4
328.15 K, x1 = 1	1.32	17.2
333.15 K, x1 = 0.1999	3.15	1.56
333.15 K, x1 = 0.3001	3.16	1.9
333.15 K, x1 = 0.4001	2.98	2.5
333.15 K, x1 = 0.5006	2.75	3.35
333.15 K, x1 = 0.6015	2.48	4.81
333.15 K, x1 = 0.7036	2.21	6.8
333.15 K, x1 = 0.8038	1.95	9.2
333.15 K, x1 = 0.9012	1.72	12.1
333.15 K, x1 = 1	1.51	14.8
338.15 K, x1 = 0.1027	2.98	1.21
338.15 K, x1 = 0.1999	3.41	1.43
338.15 K, x1 = 0.3001	3.42	1.73
338.15 K, x1 = 0.4001	3.26	2.23
338.15 K, x1 = 0.5006	3.02	2.95
338.15 K, x1 = 0.8038	2.19	8.1
338.15 K, x1 = 0.9012	1.95	10.6
338.15 K, x1 = 1	1.72	12.9
343.15 K, x1 = 0.1027	3.21	1.13
343.15 K, x1 = 0.1999	3.66	1.33
343.15 K, x1 = 0.3001	3.71	1.62
343.15 K, x1 = 0.4001	3.54	2.06
343.15 K, x1 = 0.6015	3	3.86
343.15 K, x1 = 0.8038	2.42	7.3
343.15 K, x1 = 0.9012	2.15	9.5
343.15 K, x1 = 1	1.92	11.3

O=C1CCCO1 + [S-]C#N.COCCN1C=[N+](C=C1)C
x2 = 0
Details	viscosity [mPa·s]
288.15 K	2.02
293.15 K	1.86
298.15 K	1.72
303.15 K	1.59
308.15 K	1.48
318.15 K	1.29
323.15 K	1.21
328.15 K	1.14
333.15 K	1.08
338.15 K	1.02
343.15 K	0.97

Reference: a compilation of properties of binary mixtures (doi:10.1021/acs.jced.2c00024)
